{
  "source": "paper PMC7937321",
  "about": "(Genes and Environment, 2021)",
  "key": {"[1]": {"system": "human lymphoblastoid TK6 cells, thymidine kinase gene", "assay": "TK gene mutation assay (TK6 assay, OECD TG490)"}, "TK6 cells": {"system": "TK6 cells", "assay": "Cytotoxicity in the TK6 assay (CE, RS, RSG, RTG)", "details": "+S9 mix", "experimental": "Briefly, test substances were dissolved in an appropriate solvent (DMSO or ethanol) and then serially diluted to prepare final concentrations. […] The 4 h and 24 h treatments were conducted by shaking and static exposures, respectively. After treatment with test substances, cells were centrifuged (1000 rpm, 5 min), supernatants were removed, and cells were washed with a serum-free medium or Hank’s Balanced Salt Solution. After centrifugation (1000 rpm, 5 min) to remove the supernatant, cells (2 × 10^7 cells) were dispersed in an RPMI medium containing 10% serum, and cell concentration was measured. Treated cells were cultured at 37 °C with 5% CO2 condition and used for TK6 assays. At that time, to calculate the cloning efficiency (CE) (Eq. 1), the cells were cultured in a 96-well microplate at a concentration of about 1.6 cells/well for 2 weeks.\nCE, the cell colony formation rate, was calculated using Eq. 1 according to the Poisson distribution equation. EW was the number of wells without colonies, and TW was the total number of wells. N was the average number of cells per well (N = 1.6). 1 CE=−lnEW/TW/N\nAdditionally, CE was adjusted by the following calculation (Eq. 2) due to cell loss when exposure caused cytotoxicity. “The number of cells at the end of the treatment” was the number of cells obtained after centrifugation at the end of the treatment in the above-described exposure treatment of the test substance. The “cell number at the start of treatment” was 2 × 10^7. 2 AdjustedCE=CE×number of cellsatendof treatment/number of cellsatthe start of treatment\nCE0 seeding, in which cells were seeded immediately after treatment, and CE3 seeding, in which cells were seeded 3 days after treatment, to examine cell viability in the TK6 assay described below. The relative cell viability RS0 (%) just after the treatment with the test substance was calculated from CE0, following Eq. 3. The survival rate of the negative control group was defined as 100%. 3 RS0%=adjusted CE0 of treatment culture/adjusted CE0 of solvent control×100\nThe TK6 assay is conducted between 20 and 10% RS0 as a maximum dose if cytotoxicity is observed. […] When the main TK6 assay was difficult to conduct under the condition of RS0 values from 20 to 10%, the test was conducted between 20 and 10% relative total growth (RTG), described later, as a maximum dose.\nBesides RS0, relative suspension growth (RSG) and RTG as other cytotoxicity indices (Eq. 4) were used. When cells were cultured for 3 days after treatment with the test substance, suspension cell growth ratio 1 (SG1) was the growth ratio from day 0 to day 1 (cell concentration on day 1/cell concentration on day 0). The suspension cell growth ratio 2 (SG2) was the growth ratio from day 1 to day 2 (cell concentration on day 2/cell concentration on day 1). The RSG value was calculated by dividing the total SG value of the untreated group for 3 days by the total SG value of the treated group for the same 3 days (Eq. 4).\nOn the third day of culture, CE3 plates for determining plating efficiency and mutant frequency (MF) plates for mutation detection were prepared. CE3 plates were seeded in 96-well microplates at a concentration of about 1.6 cells/well."}, "[2]": {"details": "dose 3.00 μg/mL, short treatment, +S9 mix"}, "[3]": {"details": "short treatment, +S9 mix, positive control, dose 10.00 μg/mL"}, "[4]": {"details": "Short treatment, 3.00 μg/mL, Day 0"}, "[5]": {"details": "dose 3.00 μg/mL, short treatment"}, "[6]": {"details": "short treatment, Day 0, positive control, dose 10.00 μg/mL"}},
  "data": [
    {"smiles": "O=P1(N(CCCl)CCCl)NCCCO1", "note": "(centres unmarked) [CP, Cyclophosphamide, reference compound]", "values": [
      {"measurement": "%SG", "setting": "[1]; [2]", "value": 75.7, "unit": "%"},
      {"measurement": "Mut. freq. (×10-6) N-MF", "setting": "[1]; [2]", "value": "14.0 ×10-6"},
      {"measurement": "Mut. freq. (×10-6) S-MF", "setting": "[1]; [2]", "value": "43.8 ×10-6"},
      {"measurement": "Mut. freq. (×10-6) T-MF", "setting": "[1]; [2]", "value": "57.8 ×10-6"},
      {"measurement": "mutant frequency of the concurrent positive control (mean)", "setting": "[1]; short treatment with S9 mix, 2.5–3 μg/mL", "value": "28.6 × 10^− 6"},
      {"measurement": "%SG", "setting": "[1]; [3]", "value": 50.8, "unit": "%"},
      {"measurement": "Mut. freq. N-MF", "setting": "[1]; [3]", "value": "10.0 ×10-6"},
      {"measurement": "Mut. freq. S-MF", "setting": "[1]; [3]", "value": "10.3 ×10-6"},
      {"measurement": "Mut. freq. T-MF", "setting": "[1]; [3]", "value": "20.3 ×10-6"},
      {"measurement": "Daily cell growth Day 1×2×3", "setting": "TK6 cells; Short treatment, 3.00 μg/mL", "value": 7.35},
      {"measurement": "RSG", "setting": "TK6 cells; Short treatment, 3.00 μg/mL", "value": 0.385},
      {"measurement": "Adjusted CE0", "setting": "TK6 cells; [4]", "value": 34.5, "unit": "%"},
      {"measurement": "CE0", "setting": "TK6 cells; [4]", "value": 36.0, "unit": "%"},
      {"measurement": "RS0", "setting": "TK6 cells; [4]", "value": 43.1, "unit": "%"},
      {"measurement": "CE3", "setting": "TK6 cells; Short treatment, 3.00 μg/mL, Day 3", "value": 66.7, "unit": "%"},
      {"measurement": "CE3", "setting": "TK6 cells; [5]", "value": 0.667},
      {"measurement": "RS", "setting": "TK6 cells; [5]", "value": 43.1},
      {"measurement": "Adjusted CE0", "setting": "TK6 cells; [6]", "value": 11.6, "unit": "%"},
      {"measurement": "CE0", "setting": "TK6 cells; [6]", "value": 10.6, "unit": "%"},
      {"measurement": "RS0", "setting": "TK6 cells; [6]", "value": 12.2, "unit": "%"},
      {"measurement": "CE3", "setting": "TK6 cells; short treatment, Day 3, positive control, dose 10.00 μg/mL", "value": 68.7, "unit": "%"},
      {"measurement": "CE3", "setting": "TK6 cells; short treatment, as fraction, positive control, dose 10.00 μg/mL", "value": 0.687},
      {"measurement": "RSG", "setting": "TK6 cells; short treatment, positive control, dose 10.00 μg/mL", "value": 0.063}
    ]}
  ]
}
